Structures can show the parent of a compound that is named as a salt.
These molecules were tested against T1, human LPA1 (Homo sapiens, UniProt Q92633) (assay: LPA1 functional antagonist assay (calcium flux)). Settings: Chinese hamster ovary cells overexpressing human LPA1; calcium flux induced by 10 nM LPA; read-out: hLPA1 IC50.
T1 construct: expressed in transfected cells; host or cells: Chinese hamster ovary (CHO) cells
Assay type: cell-based
Description: The effectiveness of compounds of the present invention as LPA1 inhibitors can be determined in an LPA1 functional antagonist assay as follows:
Chinese hamster ovary cells overexpressing human LPA1 were plated overnight (15,000 cells/well) in poly-D-lysine coated 384-well microplates (Greiner bio-one, Cat #781946) in DMEM/F12 medium (Gibco, Cat #11039). Following overnight culture, cells were loaded with calcium indicator dye (AAT Bioquest Inc, Cat #34601) for 30 minutes at 37° C. The cells were then equilibrated to room temperature for 30 minutes before the assay. Test compounds solubilized in DMSO were transferred to 384 well non-binding surface plates (Corning, Cat #3575) using the Labcyte Echo acoustic dispense and diluted with assay buffer [1×HBSS with calcium/magnesium (Gibco Cat #14025-092), 20 mM HEPES (Gibco Cat #15630-080) and 0.1% fatty acid free BSA (Sigma Cat #A9205)] to a final concentration of 0.5% DMSO. Diluted compounds were added to the cells by FDSS6000 (Hamamatsu) at final concentrations ranging from 0.08 nM to 5 μM. and were then incubated for 20 min at room temperature at which time LPA (Avanti Polar Lipids Cat #857130C) was added at final concentrations of 10 nM to stimulate the cells.
The compound IC50 value was defined as the concentration of test compound which inhibited 50% of the calcium flux induced by LPA alone. IC50 values were determined by fitting data to a 4-parameter logistic equation (GraphPad Prism, San Diego Calif.).

T1 sequence (Q92633 whole entry): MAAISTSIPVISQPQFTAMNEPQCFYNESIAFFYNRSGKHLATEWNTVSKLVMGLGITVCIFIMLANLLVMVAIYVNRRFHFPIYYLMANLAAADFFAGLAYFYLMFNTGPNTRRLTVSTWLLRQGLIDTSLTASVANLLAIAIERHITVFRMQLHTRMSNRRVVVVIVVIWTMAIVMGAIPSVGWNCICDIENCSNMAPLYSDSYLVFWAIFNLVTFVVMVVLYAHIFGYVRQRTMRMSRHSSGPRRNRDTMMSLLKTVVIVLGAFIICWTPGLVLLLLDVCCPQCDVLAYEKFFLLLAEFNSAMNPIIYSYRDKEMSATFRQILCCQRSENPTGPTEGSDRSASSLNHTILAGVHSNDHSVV

| IC50 | SMILES |
| --- | --- |
| 230 nM | CCc1nc(-c2cnn(C)c2Cn2cc(CC3CC3)nn2)ncc1O[C@H]1CCC[C@H](C(=O)O)C1 [Example 12] |
| 636 nM | Cc1nc(-c2cnn(C)c2Cn2cc(CC3CC3)nn2)ncc1O[C@H]1CCC[C@H](C(=O)O)C1 [Example 9, (1S,3S)-3-((2-(5-((4-(cyclopropylmethyl)-1H-1,2,3-triazol-1-yl)methyl)-1-methyl-1H-pyrazol-4-yl)-4-methylpyrimidin-5-yl)oxy)cyclohexane-1-carboxylic acid] |
| 399 nM | CCCCc1cn(Cc2c(-c3ncc(O[C@H]4CCC[C@H](C(=O)O)C4)c(CC)n3)cnn2C)nn1 [Example 11] |
| 26 nM | CCc1nc(-c2cnn(C)c2Cn2cc(Cc3ccccc3)nn2)ncc1O[C@H]1CCC[C@H](C(=O)O)C1 [Example 10] |

More lines, now with the values behind:

| SMILES | IC50 |
| --- | --- |
| Cc1nc(-c2cnn(C)c2CNc2nc(C(C)C)ns2)ncc1O[C@H]1CCC[C@H](C(=O)O)C1 [Example 2, (1S,3S)-3-((2-(5-(((3-isopropyl-1,2,4-thiadiazol-5-yl)amino)methyl)-1-methyl-1H-pyrazol-4-yl)-4-methylpyrimidin-5-yl)oxy)cyclohexane-1-carboxylic acid] | 1860 nM |
| Cc1nc(-c2cnn(C)c2Nc2nc(C3CC3)ns2)ncc1O[C@H]1CCC[C@H](C(=O)O)C1 [Example 5] | 341 nM |
| Cc1nc(-c2cnn(C)c2CNc2noc(CCC(C)C)n2)ncc1O[C@H]1CCC[C@H](C(=O)O)C1 [Example 4, (1S,3S)-3-((2-(5-(((5-isopentyl-1,2,4-oxadiazol-3-yl)amino)methyl)-1-methyl-1H-pyrazol-4-yl)-4-methylpyrimidin-5-yl)oxy)cyclohexane-1-carboxylic acid, bis TFA salt] | 10 nM |
| CCCc1nsc(Nc2c(-c3ncc(O[C@H]4CCC[C@H](C(=O)O)C4)c(C)n3)cnn2C)n1 [Example 3, (1S,3S)-3-((4-methyl-2-(1-methyl-5-((3-propyl-1,2,4-thiadiazol-5-yl)amino)-1H-pyrazol-4-yl)pyrimidin-5-yl)oxy)cyclohexane-1-carboxylic acid] | 437 nM |
| CCCCc1nc(NCc2c(-c3ncc(O[C@H]4CCC[C@H](C(=O)O)C4)c(C)n3)cnn2C)no1 [Example 6] | 31 nM |
| Cc1nc(-c2cnn(C)c2CNc2noc(CC3CCC3)n2)ncc1O[C@H]1CCC[C@H](C(=O)O)C1 [Example 7] | 9 nM |
| Cc1nc(-c2cnn(C)c2CNc2cnn(-c3ccccc3)n2)ncc1O[C@H]1CCC[C@H](C(=O)O)C1 [Example 1, (1S,3S)-3-((4-methyl-2-(1-methyl-5-(((2-phenyl-2H-1,2,3-triazol-4-yl)amino)methyl)-1H-pyrazol-4-yl)pyrimidin-5-yl)oxy)cyclohexane-1-carboxylicacid] | 35 nM |
| Cc1nc(-c2cnn(C)c2CNc2ncn(-c3ccccc3)n2)ncc1O[C@H]1CCC[C@H](C(=O)O)C1 [Example 8] | 91 nM |
